Test results: patent US12077503B2, “Substituted cyclic amides and their use as herbicides” (FMC CORPORATION, priority 2015, dated 2024)

Legend:
Format in all cases: in vivo
[1] = test system: ragweed (common ragweed, Ambrosia elatior); assay: Test A postemergence; conditions: Ambrosia artemisiifolia, post-emergence, 240 h, postemergence
Method in brief: (§1)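 Each rating is a visual injury score from 0 to 100 given about 10 d after treatment, judged against untreated controls kept alongside in the greenhouse. In loam soil–sand blend, seeds got a preemergence directed soil spray, while postemergence plants were 2 to 10 cm tall at spraying.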

Kochia (Kochia scoparia) [2] = assay: Test A postemergence; conditions: Bassia scoparia, post-emergence, 240 h, postemergence
Method in brief: as §1

[3] = test system: giant foxtail (Setaria faberii); assay: Test A postemergence; conditions: Setaria faberi, post-emergence, 240 h, postemergence
Method in brief: as §1

[4] = test system: blackgrass (Alopecurus myosuroides); assay: Test A postemergence; conditions: Alopecurus myosuroides, post-emergence, 240 h, postemergence
Method in brief: as §1

[5] = test system: ryegrass, Italian (Italian ryegrass, Lolium multiflorum); assay: Test A postemergence; conditions: Lolium multiflorum, post-emergence, 240 h, postemergence
Method in brief: as §1

[6] = test system: pigweed (Amaranthus retroflexus); assay: Test A postemergence; conditions: Amaranthus retroflexus, post-emergence, 240 h, postemergence
Method in brief: as §1

[7] = test system: barnyardgrass (Echinochloa crus-galli); assay: Test A postemergence; conditions: Echinochloa crus-galli, post-emergence, 240 h, postemergence
Method in brief: as §1

corn (Zea mays) = assay: Test A postemergence; conditions: Zea mays, post-emergence, 240 h, postemergence
Method in brief: as §1

[8] = test system: Galium (catchweed bedstraw, Galium aparine); assay: Test A postemergence; conditions: Galium, post-emergence, 240 h, postemergence
Method in brief: as §1

[9] = test system: wheat (Triticum aestivum); assay: Test A postemergence; conditions: Triticum aestivum, post-emergence, 240 h, postemergence
Method in brief: as §1

[10] = test system: ragweed (common ragweed, Ambrosia elatior); assay: Test A preemergence; conditions: Ambrosia artemisiifolia, pre-emergence, 240 h, preemergence, 0 to 100 scale where 0 is no effect and 100 is complete control, read-out: Ragweed plant response rating
Method in brief: as §1

Kochia (Kochia scoparia) [11] = assay: Test A preemergence; conditions: Bassia scoparia, pre-emergence, 240 h, preemergence, 0 to 100 scale where 0 is no effect and 100 is complete control, read-out: Kochia plant response rating
Method in brief: as §1

[12] = test system: giant foxtail (Setaria faberii); assay: Test A preemergence; conditions: Setaria faberi, pre-emergence, 240 h, preemergence, 0 to 100 scale where 0 is no effect and 100 is complete control, read-out: Foxtail, Giant plant response rating
Method in brief: as §1

[13] = test system: ryegrass, Italian (Italian ryegrass, Lolium multiflorum); assay: Test A preemergence; conditions: Lolium multiflorum, pre-emergence, 240 h, preemergence, 0 to 100 scale where 0 is no effect and 100 is complete control, read-out: Ryegrass, Italian plant response rating
Method in brief: as §1

[14] = test system: pigweed (Amaranthus retroflexus); assay: Test A preemergence; conditions: Amaranthus retroflexus, pre-emergence, 240 h, preemergence, 0 to 100 scale where 0 is no effect and 100 is complete control, read-out: Pigweed plant response rating
[15] = 125 g ai/ha, visual injury rating, approximately 10 d

N#Cc1cc([C@H]2CNC(=O)[C@]2(O)C(=O)Nc2ccccc2F)ccc1F [Compound 1200]
0%: pest or weed control at 125 g/ha ([1]; 125 g ai/ha, visual injury vs untreated controls after approx. 10 d, 0 = no effect, 100 = complete control, read-out: Ragweed plant response rating (0 to 100 scale)) | pest or weed control at 500 g/ha ([1]; 500 g ai/ha, 0 to 100 scale, 0 is no effect, 100 is complete control, read-out: Ragweed plant response rating) | pest or weed control at 125 g/ha (Kochia (Kochia scoparia) [2]; 125 g ai/ha, visual injury vs untreated controls after approx. 10 d, 0 = no effect, 100 = complete control, read-out: Kochia plant response rating (0 to 100 scale)) | pest or weed control at 500 g/ha (Kochia (Kochia scoparia) [2]; 500 g ai/ha, 0 to 100 scale, 0 is no effect, 100 is complete control, read-out: Kochia plant response rating) | pest or weed control at 125 g/ha ([3]; 125 g ai/ha, visual injury vs untreated controls after approx. 10 d, 0 = no effect, 100 = complete control, read-out: Foxtail, Giant plant response rating (0 to 100 scale)) | pest or weed control at 500 g/ha ([3]; 500 g ai/ha, 0 to 100 scale, 0 is no effect, 100 is complete control, read-out: Foxtail, Giant plant response rating) | pest or weed control at 125 g/ha ([4]; 125 g ai/ha, visual injury vs untreated controls after approx. 10 d, 0 = no effect, 100 = complete control, read-out: Blackgrass plant response rating (0 to 100 scale)) | pest or weed control at 500 g/ha ([4]; 500 g ai/ha, 0 to 100 scale, 0 is no effect, 100 is complete control, read-out: Blackgrass plant response rating) | pest or weed control at 125 g/ha ([5]; 125 g ai/ha, visual injury vs untreated controls after approx. 10 d, 0 = no effect, 100 = complete control, read-out: Ryegrass, Italian plant response rating (0 to 100 scale)) | pest or weed control at 500 g/ha ([5]; 500 g ai/ha, 0 to 100 scale, 0 is no effect, 100 is complete control, read-out: Ryegrass, Italian plant response rating) | pest or weed control at 125 g/ha ([6]; 125 g ai/ha, visual injury vs untreated controls after approx. 10 d, 0 = no effect, 100 = complete control, read-out: Pigweed plant response rating (0 to 100 scale)) | pest or weed control at 500 g/ha ([6]; 500 g ai/ha, 0 to 100 scale, 0 is no effect, 100 is complete control, read-out: Pigweed plant response rating) | pest or weed control at 125 g/ha ([7]; 125 g ai/ha, visual injury vs untreated controls after approx. 10 d, 0 = no effect, 100 = complete control, read-out: Barnyardgrass plant response rating (0 to 100 scale)) | pest or weed control at 500 g/ha ([7]; 500 g ai/ha, 0 to 100 scale, 0 is no effect, 100 is complete control, read-out: Barnyardgrass plant response rating) | plant injury at 125 g/ha (corn (Zea mays); 125 g ai/ha, visual injury vs untreated controls after approx. 10 d, 0 = no effect, 100 = complete control, read-out: Corn plant response rating (0 to 100 scale)) | plant injury at 500 g/ha (corn (Zea mays); 500 g ai/ha, 0 to 100 scale, 0 is no effect, 100 is complete control, read-out: Corn plant response rating) | pest or weed control at 125 g/ha ([8]; 125 g ai/ha, visual injury vs untreated controls after approx. 10 d, 0 = no effect, 100 = complete control, read-out: Galium plant response rating (0 to 100 scale)) | pest or weed control at 500 g/ha ([8]; 500 g ai/ha, 0 to 100 scale, 0 is no effect, 100 is complete control, read-out: Galium plant response rating) | plant injury at 125 g/ha ([9]; 125 g ai/ha, visual injury vs untreated controls after approx. 10 d, 0 = no effect, 100 = complete control, read-out: Wheat plant response rating (0 to 100 scale)) | plant injury at 500 g/ha ([9]; 500 g ai/ha, 0 to 100 scale, 0 is no effect, 100 is complete control, read-out: Wheat plant response rating) | pest or weed control at 125 g/ha [10, 15] | pest or weed control at 500 g/ha ([10]; 500 g ai/ha) | pest or weed control at 125 g/ha (Kochia (Kochia scoparia) [11]; [15]) | pest or weed control at 500 g/ha (Kochia (Kochia scoparia) [11]; 500 g ai/ha) | pest or weed control at 125 g/ha [12, 15] | pest or weed control at 500 g/ha ([12]; 500 g ai/ha) | pest or weed control at 125 g/ha [13, 15] | pest or weed control at 500 g/ha ([13]; 500 g ai/ha) | pest or weed control at 125 g/ha [14, 15] | pest or weed control at 500 g/ha ([14]; 500 g ai/ha)
